{"source": "paper PMC9012672", "about": "(Clinical cancer research : an official journal of the …, 2022)", "key": {"[1]": {"experiment": "CodeBreaK 100 multiple-dose PK", "assay_type": "in vivo, human", "settings": "for AUC(0-t) / Cmax / Tmax / half-life: human, plasma, po"}, "patients with NSCLC": {"test_system": "patients with NSCLC", "experiment": "CodeBreaK 100", "assay_type": "in vivo"}, "rats": {"test_system": "rats", "experiment": "3-month rat toxicology study", "assay_type": "in vivo"}, "CYP3A4": {"molecular_target": "CYP3A4 (Homo sapiens, UniProt P08684)", "sequence (P08684 whole entry)": "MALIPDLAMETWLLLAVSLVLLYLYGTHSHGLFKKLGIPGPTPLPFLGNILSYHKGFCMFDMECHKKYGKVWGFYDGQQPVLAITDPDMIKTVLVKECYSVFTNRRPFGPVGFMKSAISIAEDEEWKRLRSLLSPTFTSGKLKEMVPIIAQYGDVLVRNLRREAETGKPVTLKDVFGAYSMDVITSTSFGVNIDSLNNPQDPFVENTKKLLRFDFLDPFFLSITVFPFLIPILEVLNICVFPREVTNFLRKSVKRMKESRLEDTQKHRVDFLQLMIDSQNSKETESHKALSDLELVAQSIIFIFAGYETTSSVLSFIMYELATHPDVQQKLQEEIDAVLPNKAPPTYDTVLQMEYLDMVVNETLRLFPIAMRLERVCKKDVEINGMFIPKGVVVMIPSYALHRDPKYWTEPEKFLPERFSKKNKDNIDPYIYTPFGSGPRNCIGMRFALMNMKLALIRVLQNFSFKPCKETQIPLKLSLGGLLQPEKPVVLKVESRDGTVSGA", "experiment": "Metabolism of sotorasib", "assay_type": "in vitro ADME"}, "[2]": {"experiment": "Clinical pharmacology: elimination, food effect, covariate effects on exposure", "settings": "human, in vivo"}, "Beagle dogs": {"test_system": "Beagle dogs", "settings": "3-month dog study; cited from earlier work"}, "[3]": {"settings": "204 patients with NSCLC, 960 mg daily"}}}
{"smiles": "C=CC(=O)N1CCN(c2nc(=O)n(-c3c(C)ccnc3C(C)C)c3nc(-c4c(O)cccc4F)c(F)cc23)[C@@H](C)C1", "note": "[sotorasib]", "values": [{"measurement": "Systemic exposures (AUC0–24h and Cmax) across dose levels", "setting": "[1]; daily doses ranging from 180 mg to 960 mg", "value": "similar"}, {"measurement": "AUC(0-t)", "setting": "[1]; 180 mg", "value": 31700, "unit": "ng·h/mL"}, {"measurement": "Cmax", "setting": "[1]; 180 mg", "value": 6440, "unit": "ng/mL"}, {"measurement": "Tmax", "setting": "[1]; 180 mg", "value": 0.73, "unit": "h"}, {"measurement": "half-life", "setting": "[1]; 180 mg", "value": 5.13, "unit": "h"}, {"measurement": "AUC(0-t)", "setting": "[1]; 360 mg", "value": 38900, "unit": "ng·h/mL"}, {"measurement": "Cmax", "setting": "[1]; 360 mg", "value": 6310, "unit": "ng/mL"}, {"measurement": "half-life", "setting": "[1]; 360 mg", "value": 5.53, "unit": "h"}, {"measurement": "AUC(0-t)", "setting": "[1]; 720 mg", "value": 42100, "unit": "ng·h/mL"}, {"measurement": "Cmax", "setting": "[1]; 720 mg", "value": 5450, "unit": "ng/mL"}, {"measurement": "Tmax", "setting": "[1]; 720 mg", "value": 1.1, "unit": "h"}, {"measurement": "half-life", "setting": "[1]; 720 mg", "value": 4.75, "unit": "h"}, {"measurement": "AUC(0-t)", "setting": "[1]; 960 mg", "value": 32400, "unit": "ng·h/mL"}, {"measurement": "Cmax", "setting": "[1]; 960 mg", "value": 5390, "unit": "ng/mL"}, {"measurement": "Tmax", "setting": "[1]; 960 mg", "value": 1.1, "unit": "h"}, {"measurement": "half-life", "setting": "[1]; 960 mg", "value": 5.07, "unit": "h"}, {"measurement": "Adverse event: abdominal pain", "setting": "patients with NSCLC; [3]", "value": 15, "unit": "%"}, {"measurement": "Adverse event: constipation", "setting": "patients with NSCLC; [3]", "value": 16, "unit": "%"}, {"measurement": "Adverse event: cough", "setting": "patients with NSCLC; [3]", "value": 20, "unit": "%"}, {"measurement": "Adverse event: decreased appetite", "setting": "patients with NSCLC; [3]", "value": 13, "unit": "%"}, {"measurement": "Adverse event: diarrhea", "setting": "patients with NSCLC; [3]", "value": 42, "unit": "%"}, {"measurement": "Adverse event: dyspnea", "setting": "patients with NSCLC; [3]", "value": 16, "unit": "%"}, {"measurement": "Adverse event: edema", "setting": "patients with NSCLC; [3]", "value": 15, "unit": "%"}, {"measurement": "Adverse event: musculoskeletal pain", "setting": "patients with NSCLC; [3]", "value": 35, "unit": "%"}, {"measurement": "Adverse event: pneumonia", "setting": "patients with NSCLC; [3]", "value": 12, "unit": "%"}, {"measurement": "Adverse event: rash", "setting": "patients with NSCLC; [3]", "value": 12, "unit": "%"}, {"measurement": "Adverse event: vomiting", "setting": "patients with NSCLC; [3]", "value": 17, "unit": "%"}, {"measurement": "Discontinuation due to hepatotoxicity", "setting": "patients with NSCLC; [3]", "value": 4.9, "unit": "%"}, {"measurement": "Permanent discontinuation due to an AE", "setting": "patients with NSCLC; [3]", "value": 9, "unit": "%"}, {"measurement": "Serious AE: diarrhea", "setting": "patients with NSCLC; [3]", "value": 2, "unit": "%"}, {"measurement": "Serious AE: hepatotoxicity", "setting": "patients with NSCLC; [3]", "value": 3.4, "unit": "%"}, {"measurement": "Serious AE: pneumonia", "setting": "patients with NSCLC; [3]", "value": 8, "unit": "%"}, {"measurement": "Serious AEs, patients", "setting": "patients with NSCLC; [3]", "value": 50, "unit": "%"}, {"measurement": "Adverse event: hepatotoxicity", "setting": "patients with NSCLC; 204 patients with NSCLC, 960 mg daily, grouped term", "value": 25, "unit": "%"}, {"measurement": "Resolution of hepatotoxicity after dose reduction or interruption", "setting": "patients with NSCLC; cases with dose reduction or interruption", "value": 91, "unit": "%"}, {"measurement": "Patients with hepatotoxicity requiring dose reduction or interruption", "setting": "patients with NSCLC; of the 50 patients with an event of hepatotoxicity (n=23)", "value": 46, "unit": "%"}, {"measurement": "Patients with hepatotoxicity treated with systemic corticosteroids", "setting": "patients with NSCLC; of the 357 patients treated with 960 mg daily", "value": 5, "unit": "%"}, {"measurement": "Most common adverse reactions (≥20%)", "setting": "patients with NSCLC; patients with NSCLC in CodeBreaK 100", "value": "diarrhea, musculoskeletal pain, nausea, fatigue, hepatotoxicity, and cough"}, {"measurement": "Hepatotoxicity events that were severe (Grade 3 or 4)", "setting": "patients with NSCLC; primary safety population", "value": 12, "unit": "%"}, {"measurement": "Renal toxicity events", "setting": "patients with NSCLC; primary safety population", "value": "rare, mild to moderate, and did not require dose reduction or discontinuation"}, {"measurement": "Interstitial lung disease/pneumonitis", "setting": "patients with NSCLC; primary safety population, three patients, one fatal case", "value": 1.5, "unit": "%"}, {"measurement": "Most notable toxicity (renal toxicity) findings", "setting": "rats; 3-month rat study", "value": "renal tubular degeneration/necrosis and increased kidney weight with biomarkers of renal tubular injury"}, {"measurement": "Recovery of renal toxicity", "setting": "rats; after two months", "value": "Partial recovery"}, {"measurement": "Main metabolising enzyme", "setting": "CYP3A4", "value": "primarily metabolized by CYP3A4"}, {"measurement": "Food effect on administration", "setting": "[2]", "value": "may be taken with or without food"}, {"measurement": "Route of elimination", "setting": "[2]", "value": "mainly eliminated via the fecal route with minor renal excretion"}, {"measurement": "Renal toxicity", "setting": "Beagle dogs", "value": "not identified"}]}
